Measurements reported in US11110105B2, “Compounds, composition and uses thereof for treating cancer” (INSTITUT GUSTAVE ROUSSY, priority 2017, dated 2021).
“Also recorded” adds a separate entry of the source.

Columns and labels:
[1] = MTT assay on B16F10 cell line; assay type: cell-based, mouse; conditions: mouse, B16F10 melanoma cells, MTT, read-out: % cell viability (±SEM)
Method: (§1) RNA was extracted and qRT-PCR was performed with primers amplifying the unspliced (intron) and the spliced (exon) globin-SL8-intron RNA. Data are given as mean ±SEM of the ratio of 2^−ΔΔCt intron and 2^−ΔΔCt exon of at least three independent experiments. […] Data are express as mean ±SEM of the percentage of viable cells compared to the control condition of at least three independent experiments. *P<0.05, **P<0.01, ***P<0.001 (unpaired student t test).
(§2) MCA205 mouse sarcoma cell line is cultured at 37° C. under 5% CO2 in RPMI 1640 medium (Life Technologies) in the presence of 1% glutamine, 1% sodium pyruvate, 1% non-essential amino-acids, 1% penicillin/streptomycin and 10% FBS (Life Technologies) under standard conditions. B16F10 mouse melanoma cell line, MRC5 human fibroblast cell line and A375 human melanoma cell line are cultured at 37° C. under 5% CO2 in DMEM medium (Life Technologies) containing 1% glutamine, 1% penicillin/streptomycin and 10% FCS under standard conditions. A549 human lung carcinoma cell line is cultured at 37° C. under 5% CO2 in DMEM/F12+Glutamax I in the presence of 1% Hepes, 1% sodium pyruvate and 10% FBS under standard conditions. Stable MCA205-Globin-SL8-intron cell line are cultured under the same condition as MCA205 cell line with additional 2 mg/ml G418 (geneticin from Life Technologies) for selection. Stable B16F10-Globin-SL8-intron cell line are cultured under the same condition as B16F10 cell line with additional 2 mg/ml G418 (geneticin from Life Technologies) for selection. The SL8/Kb-specific (B3Z) T-cell reporter hybridoma are cultured at 37° C. under 5% CO2 in RPMI 1640 medium (Life Technologies) in the presence of 1% glutamine, 0.1% β-galactosidase, 1% penicillin/streptomycin and 10% FCS under standard conditions.
(§3) MTT assay on MCA205 and B16F10 cell lines treated with 6.25 μM, 15 μM or 25 μM of isoginkgetin. Dare are given as the mean of the percentage of cell viability ±SEM from at least three independent experiments.

[2] = system: B16F10 globin-SL8-intron tumors; assay: Tumor challenge, B16F10 globin-SL8-intron in immunodeficient Nu/Nu nude mice; assay type: in vivo, mouse; conditions: 18 mg/kg intraperitoneally, days 5, 10 and 15
Method: (A) Experimental settings. Growth of (B) sarcoma MCA205 or (C) melanoma B16F10 cells that both stably express the globin-SL8-intron construct or (D) MCA205 Wild Type (WT) or (E) B16F10 WT cells that were subcutaneously inoculated on the flank of immunocompetent C57BL/6 mice injected intraperitoneally with 12 mg/kg or 18 mg/kg of isoginkgetin at days 5, 10 and 15 after inoculation. Tumor size was assessed every 3 to 4 days until reaching the established ethical endpoints. Each line represents the tumor size in area (mm^2) of 6 mice in each group. Size in area (mm^2) of (F) MCA205 globin-SL8-intron, (G) B16F10 globin-SL8-intron, (H) MCA205 WT or (I) B16F10 WT tumors subcutaneously inoculated on the flank of immunodeficient Nu/Nu Nude mice injected intraperitoneally with 18 mg/kg of isoginkgetin at days 5, 10 and 15 after inoculation. Data are presented at the day before the endpoints are reached.
Each line represents the tumor size in area (mm^2) of at least 6 mice in each group. The C right panel represents the tumor size at day 27. […]
Inventors then assessed the requirement of the immune response for isoginkgetin to reduce tumor growth Immunodeficient Nu/Nu nude mice were inoculated subcutaneously with either MCA205 or B16F10 cells that stably express the Globin-intron-SL8 or WT, and were treated with the same settings as previously described (FIG. 9A). […]

[3] = system: B16F10 mouse melanoma cell line; assay: MTT assay on B16F10 cell line; assay type: cell-based; conditions: B16F10 WT cells, 15 μM or 35 μM
Method: as §1, §2, §3

[4] = system: splicing of the Globin-SL8-intron gene product in B16F10 cells; assay: qRT-PCR of unspliced/spliced globin-SL8-intron RNA, B16F10; assay type: cell-based, mouse; conditions: 15 μM isoginkgetin, 35 μM IP2 or 35 μM M2P2, 48 hours
Method: as §1
In addition, it has been shown that cancer cells can acquire deficiencies in the splicing machinery that benefit their growth, for example by preventing the expression of tumor suppressor genes.

In the case of `COc1ccc(-c2cc(=O)c3c(O)cc(O)c(-c4cc(-c5cc(=O)c6c(O)cc(O)cc6o5)ccc4OC)c3o2)cc1` [Isoginkgetin, isoginkgetin], the viability at 6.25 µM ([1]; B16F10, 6.25 μM) is reported as 86.5%, the viability at 15 µM ([1]; B16F10, 15 μM) is reported as 58.6% and the viability at 25 µM ([1]; B16F10, 25 μM) is reported as 51.2%. The tumor growth [2] was “No effect”.
In the case of `COc1ccc(-c2cc(=O)c3c(OC)cc(OP(=O)([O-])[O-])c(-c4cc(-c5cc(=O)c6c(OC)cc(OP(=O)([O-])[O-])cc6o5)ccc4OC)c3o2)cc1.[Na+].[Na+].[Na+].[Na+]` [IM2P2], the “toxicity (MTT, percentage of viable cells compared to control)” value [3] is reported as “no toxicity” and the “splicing of Globin-SL8-intron RNA (ratio unspliced/spliced, qRT-PCR)” value [4] is reported as “does not impact splicing; also recorded: no impact”.
